Tests used:
[1] = test system: Diglycosidase derived from A. fumigatus; assay: Reactivity toward various isoflavone glycosides (HPLC); type: biochemical, Aspergillus fumigatus; set-up: unit not given here; settings: 55 °C, pH 4.0
Procedure, shortened: (§1)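 Aglycone liberation was measured by reversed-phase HPLC (260 nm, calibration-curve quantitation) after ethanol extraction at 0, 1, 3 and 6 h. Reactions ran at 55° C, pH 4.0 (20 mM acetate), with each glycoside (from 2 mM methanol stock) and 0.75 AU/mL enzyme solution.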

[2] = test system: β-Glucosidase derived from A. niger; assay: as above; type: biochemical, Aspergillus niger; set-up: glucoside / aglycon: unit not given here; settings: 55 °C, pH 4.0
Procedure, shortened: as §1

Crude diglycosidase = assay: Examination of substrate concentration in the conversion into isoflavone aglycons by diglycosidase using soybean materials; type: biochemical, Penicillium multicolor IAM7153;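 note: percent of the isoflavone family total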
Procedure, shortened: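 Reaction at 55° C, shaken, pH 4.0 (20 mM acetate), using crude diglycosidase from a 1.88 AU/mL enzyme solution on soy flour, soymilk, defatted soybean or soy protein concentrate at 2, 5, 10, 20 or 30% (w/v). Isoflavone aglycons quantified by HPLC of ethanol extracts at 0, 1, 3, 6 h.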

aglycon ([1]; Reaction time 0 h): 0
glucoside ([1]; Reaction time 0 h): 100
aglycon ([1]; Reaction time 1 h): 0
glucoside ([1]; Reaction time 1 h): 100
aglycon ([1]; Reaction time 3 h): 0
glucoside ([1]; Reaction time 3 h): 100
aglycon ([1]; Reaction time 6 h): 0
glucoside ([1]; Reaction time 6 h): 100
reactivity of β-glucosidase derived from Aspergillus niger (in words) [2]: act well
aglycon ([2]; Reaction time 0 h): 0
glucoside ([2]; Reaction time 0 h): 100
aglycon ([2]; Reaction time 1 h): 100
glucoside ([2]; Reaction time 1 h): 0
aglycon ([2]; Reaction time 3 h): 100
glucoside ([2]; Reaction time 3 h): 0
aglycon ([2]; Reaction time 6 h): 100
glucoside ([2]; Reaction time 6 h): 0
Decomposition efficiency: ratio of each glycoside/aglycon within its isoflavone family (Crude diglycosidase; concentrated soybean protein, substrate concentration 2%, heat treatment of enzyme no, reaction time 0 h): 50.5%
Decomposition efficiency: ratio of each glycoside/aglycon within its isoflavone family (Crude diglycosidase; concentrated soybean protein, substrate concentration 2%, heat treatment of enzyme no, reaction time 1 h): 1.2%
Decomposition efficiency: ratio of each glycoside/aglycon within its isoflavone family (Crude diglycosidase; concentrated soybean protein, substrate concentration 2%, heat treatment of enzyme no, reaction time 3 h): not detected
Decomposition efficiency: ratio of each glycoside/aglycon within its isoflavone family (Crude diglycosidase; concentrated soybean protein, substrate concentration 2%, heat treatment of enzyme no, reaction time 6 h): not detected
Decomposition efficiency: ratio of each glycoside/aglycon within its isoflavone family (Crude diglycosidase; concentrated soybean protein, substrate concentration 2%, heat treatment of enzyme yes, reaction time 6 h): 51.6%
Decomposition efficiency: ratio of each glycoside/aglycon within its isoflavone family (Crude diglycosidase; concentrated soybean protein, substrate concentration 5%, heat treatment of enzyme no, reaction time 0 h): 51.2%
Decomposition efficiency: ratio of each glycoside/aglycon within its isoflavone family (Crude diglycosidase; concentrated soybean protein, substrate concentration 5%, heat treatment of enzyme no, reaction time 1 h): not detected
Decomposition efficiency: ratio of each glycoside/aglycon within its isoflavone family (Crude diglycosidase; concentrated soybean protein, substrate concentration 5%, heat treatment of enzyme no, reaction time 3 h): not detected
Decomposition efficiency: ratio of each glycoside/aglycon within its isoflavone family (Crude diglycosidase; concentrated soybean protein, substrate concentration 5%, heat treatment of enzyme no, reaction time 6 h): not detected
Decomposition efficiency: ratio of each glycoside/aglycon within its isoflavone family (Crude diglycosidase; concentrated soybean protein, substrate concentration 5%, heat treatment of enzyme yes, reaction time 6 h): 52.2%
Decomposition efficiency: ratio of each glycoside/aglycon within its isoflavone family (Crude diglycosidase; concentrated soybean protein, substrate concentration 10%, heat treatment of enzyme no, reaction time 0 h): 50.6%
Decomposition efficiency: ratio of each glycoside/aglycon within its isoflavone family (Crude diglycosidase; concentrated soybean protein, substrate concentration 10%, heat treatment of enzyme no, reaction time 1 h): 1.3%
Decomposition efficiency: ratio of each glycoside/aglycon within its isoflavone family (Crude diglycosidase; concentrated soybean protein, substrate concentration 10%, heat treatment of enzyme no, reaction time 3 h): not detected
Decomposition efficiency: ratio of each glycoside/aglycon within its isoflavone family (Crude diglycosidase; concentrated soybean protein, substrate concentration 10%, heat treatment of enzyme no, reaction time 6 h): not detected
Decomposition efficiency: ratio of each glycoside/aglycon within its isoflavone family (Crude diglycosidase; concentrated soybean protein, substrate concentration 10%, heat treatment of enzyme yes, reaction time 6 h): 50.9%
Decomposition efficiency: ratio of each glycoside/aglycon within its isoflavone family (Crude diglycosidase; concentrated soybean protein, substrate concentration 20%, heat treatment of enzyme no, reaction time 0 h): 50.4%
Decomposition efficiency: ratio of each glycoside/aglycon within its isoflavone family (Crude diglycosidase; concentrated soybean protein, substrate concentration 20%, heat treatment of enzyme no, reaction time 1 h): 6.0%
Decomposition efficiency: ratio of each glycoside/aglycon within its isoflavone family (Crude diglycosidase; concentrated soybean protein, substrate concentration 20%, heat treatment of enzyme no, reaction time 3 h): not detected
Decomposition efficiency: ratio of each glycoside/aglycon within its isoflavone family (Crude diglycosidase; concentrated soybean protein, substrate concentration 20%, heat treatment of enzyme no, reaction time 6 h): not detected
Decomposition efficiency: ratio of each glycoside/aglycon within its isoflavone family (Crude diglycosidase; concentrated soybean protein, substrate concentration 20%, heat treatment of enzyme yes, reaction time 6 h): 50.8%
Decomposition efficiency: ratio of each glycoside/aglycon within its isoflavone family (Crude diglycosidase; concentrated soybean protein, substrate concentration 30%, heat treatment of enzyme no, reaction time 0 h): 54.6%
Decomposition efficiency: ratio of each glycoside/aglycon within its isoflavone family (Crude diglycosidase; concentrated soybean protein, substrate concentration 30%, heat treatment of enzyme no, reaction time 1 h): 2.8%
Decomposition efficiency: ratio of each glycoside/aglycon within its isoflavone family (Crude diglycosidase; concentrated soybean protein, substrate concentration 30%, heat treatment of enzyme no, reaction time 3 h): not detected
Decomposition efficiency: ratio of each glycoside/aglycon within its isoflavone family (Crude diglycosidase; concentrated soybean protein, substrate concentration 30%, heat treatment of enzyme no, reaction time 6 h): not detected
Decomposition efficiency: ratio of each glycoside/aglycon within its isoflavone family (Crude diglycosidase; concentrated soybean protein, substrate concentration 30%, heat treatment of enzyme yes, reaction time 6 h): 55.6%
Decomposition efficiency: ratio of each glycoside/aglycon within its isoflavone family (Crude diglycosidase; roasted soy flour, substrate concentration 2%, heat treatment of enzyme no, reaction time 0 h): 33.2%
Decomposition efficiency: ratio of each glycoside/aglycon within its isoflavone family (Crude diglycosidase; roasted soy flour, substrate concentration 2%, heat treatment of enzyme no, reaction time 1 h): not detected
Decomposition efficiency: ratio of each glycoside/aglycon within its isoflavone family (Crude diglycosidase; roasted soy flour, substrate concentration 2%, heat treatment of enzyme no, reaction time 3 h): not detected
Decomposition efficiency: ratio of each glycoside/aglycon within its isoflavone family (Crude diglycosidase; roasted soy flour, substrate concentration 2%, heat treatment of enzyme no, reaction time 6 h): not detected
Decomposition efficiency: ratio of each glycoside/aglycon within its isoflavone family (Crude diglycosidase; roasted soy flour, substrate concentration 2%, heat treatment of enzyme yes, reaction time 6 h): 48.4%
Decomposition efficiency: ratio of each glycoside/aglycon within its isoflavone family (Crude diglycosidase; roasted soy flour, substrate concentration 5%, heat treatment of enzyme no, reaction time 0 h): 47.8%
Decomposition efficiency: ratio of each glycoside/aglycon within its isoflavone family (Crude diglycosidase; roasted soy flour, substrate concentration 5%, heat treatment of enzyme no, reaction time 1 h): not detected
Decomposition efficiency: ratio of each glycoside/aglycon within its isoflavone family (Crude diglycosidase; roasted soy flour, substrate concentration 5%, heat treatment of enzyme no, reaction time 3 h): not detected
Decomposition efficiency: ratio of each glycoside/aglycon within its isoflavone family (Crude diglycosidase; roasted soy flour, substrate concentration 5%, heat treatment of enzyme no, reaction time 6 h): not detected
Decomposition efficiency: ratio of each glycoside/aglycon within its isoflavone family (Crude diglycosidase; roasted soy flour, substrate concentration 5%, heat treatment of enzyme yes, reaction time 6 h): 47.8%
Decomposition efficiency: ratio of each glycoside/aglycon within its isoflavone family (Crude diglycosidase; roasted soy flour, substrate concentration 10%, heat treatment of enzyme no, reaction time 0 h): 59.5%
Decomposition efficiency: ratio of each glycoside/aglycon within its isoflavone family (Crude diglycosidase; roasted soy flour, substrate concentration 10%, heat treatment of enzyme no, reaction time 1 h): not detected
Decomposition efficiency: ratio of each glycoside/aglycon within its isoflavone family (Crude diglycosidase; roasted soy flour, substrate concentration 10%, heat treatment of enzyme no, reaction time 3 h): not detected
Decomposition efficiency: ratio of each glycoside/aglycon within its isoflavone family (Crude diglycosidase; roasted soy flour, substrate concentration 10%, heat treatment of enzyme no, reaction time 6 h): not detected
Decomposition efficiency: ratio of each glycoside/aglycon within its isoflavone family (Crude diglycosidase; roasted soy flour, substrate concentration 10%, heat treatment of enzyme yes, reaction time 6 h): 49.5%
Decomposition efficiency: ratio of each glycoside/aglycon within its isoflavone family (Crude diglycosidase; roasted soy flour, substrate concentration 20%, heat treatment of enzyme no, reaction time 0 h): 50.5%
Decomposition efficiency: ratio of each glycoside/aglycon within its isoflavone family (Crude diglycosidase; roasted soy flour, substrate concentration 20%, heat treatment of enzyme no, reaction time 1 h): not detected
Decomposition efficiency: ratio of each glycoside/aglycon within its isoflavone family (Crude diglycosidase; roasted soy flour, substrate concentration 20%, heat treatment of enzyme no, reaction time 3 h): not detected
Decomposition efficiency: ratio of each glycoside/aglycon within its isoflavone family (Crude diglycosidase; roasted soy flour, substrate concentration 20%, heat treatment of enzyme no, reaction time 6 h): not detected
Decomposition efficiency: ratio of each glycoside/aglycon within its isoflavone family (Crude diglycosidase; roasted soy flour, substrate concentration 20%, heat treatment of enzyme yes, reaction time 6 h): 49.5%
Decomposition efficiency: ratio of each glycoside/aglycon within its isoflavone family (Crude diglycosidase; roasted soy flour, substrate concentration 30%, heat treatment of enzyme no, reaction time 0 h): 49.4%
Decomposition efficiency: ratio of each glycoside/aglycon within its isoflavone family (Crude diglycosidase; roasted soy flour, substrate concentration 30%, heat treatment of enzyme no, reaction time 1 h): 5.7%
Decomposition efficiency: ratio of each glycoside/aglycon within its isoflavone family (Crude diglycosidase; roasted soy flour, substrate concentration 30%, heat treatment of enzyme no, reaction time 3 h): 9.6%
Decomposition efficiency: ratio of each glycoside/aglycon within its isoflavone family (Crude diglycosidase; roasted soy flour, substrate concentration 30%, heat treatment of enzyme no, reaction time 6 h): 2.0%
Decomposition efficiency: ratio of each glycoside/aglycon within its isoflavone family (Crude diglycosidase; roasted soy flour, substrate concentration 30%, heat treatment of enzyme yes, reaction time 6 h): 50.1%
Decomposition efficiency: ratio of each glycoside/aglycon within its isoflavone family (Crude diglycosidase; soymilk, substrate concentration 2%, heat treatment of enzyme no, reaction time 0 h): 54.5%
Decomposition efficiency: ratio of each glycoside/aglycon within its isoflavone family (Crude diglycosidase; soymilk, substrate concentration 2%, heat treatment of enzyme no, reaction time 1 h): not detected
Decomposition efficiency: ratio of each glycoside/aglycon within its isoflavone family (Crude diglycosidase; soymilk, substrate concentration 2%, heat treatment of enzyme no, reaction time 3 h): not detected
Decomposition efficiency: ratio of each glycoside/aglycon within its isoflavone family (Crude diglycosidase; soymilk, substrate concentration 2%, heat treatment of enzyme no, reaction time 6 h): not detected
Decomposition efficiency: ratio of each glycoside/aglycon within its isoflavone family (Crude diglycosidase; soymilk, substrate concentration 2%, heat treatment of enzyme yes, reaction time 6 h): 38.0%
Decomposition efficiency: ratio of each glycoside/aglycon within its isoflavone family (Crude diglycosidase; soymilk, substrate concentration 5%, heat treatment of enzyme no, reaction time 0 h): 31.5%
Decomposition efficiency: ratio of each glycoside/aglycon within its isoflavone family (Crude diglycosidase; soymilk, substrate concentration 5%, heat treatment of enzyme no, reaction time 1 h): not detected
Decomposition efficiency: ratio of each glycoside/aglycon within its isoflavone family (Crude diglycosidase; soymilk, substrate concentration 5%, heat treatment of enzyme no, reaction time 3 h): not detected
Decomposition efficiency: ratio of each glycoside/aglycon within its isoflavone family (Crude diglycosidase; soymilk, substrate concentration 5%, heat treatment of enzyme no, reaction time 6 h): not detected
Decomposition efficiency: ratio of each glycoside/aglycon within its isoflavone family (Crude diglycosidase; soymilk, substrate concentration 5%, heat treatment of enzyme yes, reaction time 6 h): 37.9%
Decomposition efficiency: ratio of each glycoside/aglycon within its isoflavone family (Crude diglycosidase; soymilk, substrate concentration 10%, heat treatment of enzyme no, reaction time 0 h): 32.9%
Decomposition efficiency: ratio of each glycoside/aglycon within its isoflavone family (Crude diglycosidase; soymilk, substrate concentration 10%, heat treatment of enzyme no, reaction time 1 h): not detected
Decomposition efficiency: ratio of each glycoside/aglycon within its isoflavone family (Crude diglycosidase; soymilk, substrate concentration 10%, heat treatment of enzyme no, reaction time 3 h): not detected
Decomposition efficiency: ratio of each glycoside/aglycon within its isoflavone family (Crude diglycosidase; soymilk, substrate concentration 10%, heat treatment of enzyme no, reaction time 6 h): not detected
Decomposition efficiency: ratio of each glycoside/aglycon within its isoflavone family (Crude diglycosidase; soymilk, substrate concentration 10%, heat treatment of enzyme yes, reaction time 6 h): 37.6%
Decomposition efficiency: ratio of each glycoside/aglycon within its isoflavone family (Crude diglycosidase; soymilk, substrate concentration 20%, heat treatment of enzyme no, reaction time 0 h): 33.3%
Decomposition efficiency: ratio of each glycoside/aglycon within its isoflavone family (Crude diglycosidase; soymilk, substrate concentration 20%, heat treatment of enzyme no, reaction time 1 h): not detected
Decomposition efficiency: ratio of each glycoside/aglycon within its isoflavone family (Crude diglycosidase; soymilk, substrate concentration 20%, heat treatment of enzyme no, reaction time 3 h): not detected
Decomposition efficiency: ratio of each glycoside/aglycon within its isoflavone family (Crude diglycosidase; soymilk, substrate concentration 20%, heat treatment of enzyme no, reaction time 6 h): not detected
Decomposition efficiency: ratio of each glycoside/aglycon within its isoflavone family (Crude diglycosidase; soymilk, substrate concentration 20%, heat treatment of enzyme yes, reaction time 6 h): 38.6%
Decomposition efficiency: ratio of each glycoside/aglycon within its isoflavone family (Crude diglycosidase; soymilk, substrate concentration 30%, heat treatment of enzyme no, reaction time 0 h): 33.6%
Decomposition efficiency: ratio of each glycoside/aglycon within its isoflavone family (Crude diglycosidase; soymilk, substrate concentration 30%, heat treatment of enzyme no, reaction time 1 h): not detected
Decomposition efficiency: ratio of each glycoside/aglycon within its isoflavone family (Crude diglycosidase; soymilk, substrate concentration 30%, heat treatment of enzyme no, reaction time 3 h): not detected
Decomposition efficiency: ratio of each glycoside/aglycon within its isoflavone family (Crude diglycosidase; soymilk, substrate concentration 30%, heat treatment of enzyme no, reaction time 6 h): not detected
Decomposition efficiency: ratio of each glycoside/aglycon within its isoflavone family (Crude diglycosidase; soymilk, substrate concentration 30%, heat treatment of enzyme yes, reaction time 6 h): 38.6%
Compound: O=c1c(-c2ccc(O)cc2)coc2cc(O[C@@H]3O[C@H](CO)[C@@H](O)[C@H](O)[C@H]3O)cc(O)c12 [genistin]
